Reference: the NIST ThermoML archive (doi:10.1021/je2007605)
± gives the expanded uncertainty stated by the source.

Key:
[1] = for Normal melting temperature: DTA
[2] = Molar enthalpy of transition or fusion; settings: Crystal; DSC

COC(=O)c1ccc(N(C)C)cc1 [methyl 4-(dimethylamino)benzoate]
vapor or sublimation pressure [kPa], [1]
Settings | Crystal | Liquid
311.12 K, Calculated from knudsen effusion weight loss | 8.2e-05 ± 2e-05 | –
313.19 K, Calculated from knudsen effusion weight loss | 0.000104 ± 2e-05 | –
315.17 K, Calculated from knudsen effusion weight loss | 0.000131 ± 2.1e-05 | –
317.11 K, Calculated from knudsen effusion weight loss | 0.000166 ± 2.1e-05 | –
319.18 K, Calculated from knudsen effusion weight loss | 0.000211 ± 2.1e-05 | –
323.12 K, Calculated from knudsen effusion weight loss | 0.000332 ± 2.3e-05 | –
324.96 K, Closed cell (Static) method | 0.00043 ± 0.00011 | –
325.18 K, Calculated from knudsen effusion weight loss | 0.000421 ± 2.5e-05 | –
326.93 K, Closed cell (Static) method | 0.00053 ± 0.00011 | –
327.16 K, Calculated from knudsen effusion weight loss | 0.000525 ± 2.7e-05 | –
328.93 K, Closed cell (Static) method | 0.00068 ± 0.00011 | –
329.11 K, Calculated from knudsen effusion weight loss | 0.000662 ± 3.1e-05 | –
330.9 K, Closed cell (Static) method | 0.00084 ± 0.00012 | –
331.17 K, Calculated from knudsen effusion weight loss | 0.000829 ± 3.6e-05 | –
332.91 K, Closed cell (Static) method | 0.00105 ± 0.00012 | –
333.16 K, Calculated from knudsen effusion weight loss | 0.001019 ± 7.9e-05 | –
334.88 K, Closed cell (Static) method | 0.0013 ± 0.00012 | –
336.89 K, Closed cell (Static) method | 0.00161 ± 0.00013 | –
338.85 K, Closed cell (Static) method | 0.00199 ± 0.00014 | –
340.86 K, Closed cell (Static) method | 0.00246 ± 0.00015 | –
342.81 K, Closed cell (Static) method | 0.00298 ± 0.00017 | –
344.83 K, Closed cell (Static) method | 0.00365 ± 0.00019 | –
346.78 K, Closed cell (Static) method | 0.00447 ± 0.00021 | –
348.79 K, Closed cell (Static) method | 0.00542 ± 0.00024 | –
350.75 K, Closed cell (Static) method | 0.00655 ± 0.00028 | –
352.74 K, Closed cell (Static) method | 0.00799 ± 0.00034 | –
352.78 K, Closed cell (Static) method | – | 0.01105 ± 0.00045
354.73 K, Closed cell (Static) method | 0.0096 ± 0.00039 | –
354.77 K, Closed cell (Static) method | – | 0.01276 ± 0.00051
356.72 K, Closed cell (Static) method | 0.01168 ± 0.00047 | –
356.75 K, Closed cell (Static) method | – | 0.01475 ± 0.00054
358.69 K, Closed cell (Static) method | 0.01403 ± 0.00053 | –
358.73 K, Closed cell (Static) method | – | 0.01697 ± 0.00058
360.68 K, Closed cell (Static) method | 0.01658 ± 0.00057 | –
360.72 K, Closed cell (Static) method | – | 0.01953 ± 0.00062
362.67 K, Closed cell (Static) method | 0.01987 ± 0.00062 | –
362.7 K, Closed cell (Static) method | – | 0.02236 ± 0.00066
364.65 K, Closed cell (Static) method | 0.02318 ± 0.00067 | –
364.68 K, Closed cell (Static) method | – | 0.02563 ± 0.00071
366.61 K, Closed cell (Static) method | 0.02725 ± 0.00074 | –
366.67 K, Closed cell (Static) method | – | 0.02928 ± 0.00077
368.66 K, Closed cell (Static) method | 0.03255 ± 0.00082 | 0.03341 ± 0.00083
370.64 K, Closed cell (Static) method | – | 0.03797 ± 0.0009
372.62 K, Closed cell (Static) method | – | 0.04321 ± 0.00098
374.62 K, Closed cell (Static) method | – | 0.04885 ± 0.0011
376.56 K, Closed cell (Static) method | – | 0.05553 ± 0.0012
378.53 K, Closed cell (Static) method | – | 0.0627 ± 0.0013
380.52 K, Closed cell (Static) method | – | 0.07058 ± 0.0014
382.5 K, Closed cell (Static) method | – | 0.07972 ± 0.0015
384.49 K, Closed cell (Static) method | – | 0.08949 ± 0.0017
386.42 K, Closed cell (Static) method | – | 0.1006 ± 0.0019
388.46 K, Closed cell (Static) method | – | 0.1126 ± 0.0021
390.44 K, Closed cell (Static) method | – | 0.1259 ± 0.0023

Settings | Normal melting temperature [°C]
[1], Crystal | 98.14 ± 0.39

Settings | Molar enthalpy of transition or fusion [kcal/mol]
[2] | 5.59 ± 0.12

COC(=O)c1ccc(C)cc1 [methyl 4-methylbenzoate]
[1], Closed cell (Static) method
Settings | vapor or sublimation pressure [kPa]
269.27 K, Crystal | 0.0004 ± 9e-05
271.21 K, Crystal | 0.00052 ± 0.0001
273.18 K, Crystal | 0.00067 ± 0.0001
275.19 K, Crystal | 0.00087 ± 0.0001
277.14 K, Crystal | 0.00112 ± 0.0001
279.16 K, Crystal | 0.00145 ± 0.00011
281.08 K, Crystal | 0.00184 ± 0.00012
283.07 K, Crystal | 0.00235 ± 0.00013
285.08 K, Crystal | 0.003 ± 0.00015
287.05 K, Crystal | 0.00377 ± 0.00018
289.04 K, Crystal | 0.00475 ± 0.00021
291.04 K, Crystal | 0.00599 ± 0.00026
293.03 K, Liquid | 0.01066 ± 0.00043
293.04 K, Crystal | 0.00745 ± 0.00031
295.02 K, Crystal | 0.00939 ± 0.00038
295.08 K, Liquid | 0.0127 ± 0.00051
297.03 K, Crystal | 0.01167 ± 0.00047
297.05 K, Liquid | 0.01498 ± 0.00054
299.02 K, Crystal | 0.01451 ± 0.00054
299.04 K, Liquid | 0.01755 ± 0.00058
300.98 K, Crystal | 0.01795 ± 0.00059
301.03 K, Liquid | 0.02057 ± 0.00063
303 K, Liquid | 0.02404 ± 0.00068
305.03 K, Liquid | 0.02784 ± 0.00074
306.98 K, Liquid | 0.03242 ± 0.00081
308.97 K, Liquid | 0.03825 ± 0.0009
310.97 K, Liquid | 0.0434 ± 0.00098
312.95 K, Liquid | 0.05065 ± 0.0011
314.97 K, Liquid | 0.05815 ± 0.0012
316.99 K, Liquid | 0.06735 ± 0.0014
318.9 K, Liquid | 0.07685 ± 0.0015
320.95 K, Liquid | 0.08945 ± 0.0017
322.94 K, Liquid | 0.1009 ± 0.0019
324.92 K, Liquid | 0.1171 ± 0.0021
326.96 K, Liquid | 0.132 ± 0.002
328.85 K, Liquid | 0.151 ± 0.0022
330.92 K, Liquid | 0.1689 ± 0.0024
332.84 K, Liquid | 0.1934 ± 0.0026
334.91 K, Liquid | 0.2162 ± 0.0028
336.82 K, Liquid | 0.2454 ± 0.003
338.88 K, Liquid | 0.2748 ± 0.0033
340.75 K, Liquid | 0.31 ± 0.0036
342.8 K, Liquid | 0.3469 ± 0.0039
344.71 K, Liquid | 0.3884 ± 0.0043
346.77 K, Liquid | 0.4353 ± 0.0047
348.75 K, Liquid | 0.484 ± 0.0051

Settings | Normal melting temperature [°C]
[1], Crystal | 31.94 ± 0.52

Settings | Molar enthalpy of transition or fusion [kcal/mol]
[2] | 4.83 ± 0.215
